Columns and labels:
MDA-MB-468 = test: NCI antitumor screen (SRB); assay type: cell-based; settings: Homo sapiens, one dose 10 µM, read-out: Growth inhibition percentage (GI%)
A549/ATCC = test: NCI antitumor screen (SRB); assay type: cell-based; settings: Homo sapiens, one dose 10 µM, read-out: Growth inhibition percentage (GI%)
HOP-62 = test: NCI antitumor screen (SRB); assay type: cell-based; settings: Homo sapiens; HOP-62; one dose 10 µM; read-out: Growth inhibition percentage (GI%)
HT29 = test: NCI antitumor screen (SRB); assay type: cell-based; settings: Homo sapiens, HT-29, one dose 10 µM, read-out: Growth inhibition percentage (GI%)
UO-31 = test: NCI antitumor screen (SRB); assay type: cell-based, human; settings: Homo sapiens, UO-31, UO-31; one dose 10 µM; read-out: Growth inhibition percentage (GI%)
NCI-H226 = test: NCI antitumor screen (SRB); assay type: cell-based; settings: Homo sapiens, one dose 10 µM, read-out: Growth inhibition percentage (GI%)
NCI-H522 = test: NCI antitumor screen (SRB); assay type: cell-based; settings: Homo sapiens; NCI-H522; one dose 10 µM; read-out: Growth inhibition percentage (GI%)
SNB-75 = test: NCI antitumor screen (SRB); assay type: cell-based; settings: Homo sapiens, one dose 10 µM, read-out: Growth inhibition percentage (GI%)
[1] = tested on: full panel of 59 cancer cell lines; test: NCI antitumor screen, full panel; settings: one dose 10 µM
UACC-257 = test: NCI antitumor screen (SRB); assay type: cell-based, human; settings: Homo sapiens, UACC-257, UACC-257; one dose 10 µM; read-out: Growth inhibition percentage (GI%)

CS(=O)(=O)c1ccc(C(=O)NN=Cc2ccc(Cl)cc2Cl)cc1 [Compound 17, N'-(2,4-Dichlorobenzylidene)-4-(methylsulfonyl)benzohydrazide]
inhibition at 10 µM (MDA-MB-468): 18.1%
inhibition at 10 µM (A549/ATCC): 13.7%
inhibition at 10 µM (HOP-62): 10.2%
inhibition at 10 µM (HT29): 11.3%
inhibition at 10 µM (UO-31): 12.7%
inhibition at 10 µM (NCI-H226): 13.6%
inhibition at 10 µM (NCI-H522): 25%
inhibition at 10 µM (SNB-75): 10.9%
PCE: positive cytotoxic effect (number of cell lines with GI 10 to 100% / total number of cell lines) [1]: 9/59
inhibition at 10 µM (UACC-257): 29.4%
